Measurements as given in patent US20160030318A1, “HIGHLY BIOAVAILABLE Na-ACYL ACIDIC AMINO ACID ESTER SALT COMPOSITONS WITH ZWITTERIONIC SURFACTANTS” (JOHNSON & JOHNSON CONSUMER INC., priority 2014, published 2016).

Columns and labels:
[1] = system: Escherichia, Pseudomonas aeruginosa, Proteus vulgarus, Staphylococcus aureus, Bacillus substilis, Candida albicans and Aspergillus niger; settings: disclosed in GB 1352420; cited from earlier work
[2] = Disc Retention Assay (DRA) for LAE bioavailability; type: in vitro ADME
Description: Procedure for Determining Bioavailability
Lanzalaco. Availability Testing of Cetylpyridinium Chloride Mouthrinses. […] Mar. 19-23, 1997.
Cellulose Filter disks (Schleicher and Schuell #740-E)
24-well culture plate (Corning 3526)
Vacuum pulled filtration system
0.1% Acid Fuschin dye solution (w/v)
20% p-toluenesulfonic acid solution (w/v)
Spectrophotometer (Molecular Devices—SpectraMAX 190)
10. […] Vortexed solution.
12. Read absorbance spectrophotometrically at 545 nm.

[3] = described in JP 57-165305; cited from earlier work

Substance | bactericidal activity [1] | BA ± SE with LAE [2] [%] | BA ± SE without LAE [2] [%] | Impact of surfactant on LAE bioavailability [2] | bacteriocidal activity [3]
N^α-cocoyl-L-arginine methyl ester pyrrolidone carboxylate | bactericidal activity | – | – | – | –
Cocamidopropyl Betaine | – | 86.1 ± 2.8 | 27.6 ± 15.0 | did not negatively impact bioavailability | –
Poloxamer 407 | – | 35.9 ± 5.2 | – | – | –
N^α-cocoyl-L-arginine ethyl ester pyrrolidone carboxylate | bactericidal activity | – | – | – | weak bacteriocidal activity
